Results taken from patent US20090143279A1 (priority 2007, published 2009).
Like-named read-outs stand apart in the source and are kept apart here.

Legend:
[1] = system: mitochondrial membrane potential; assay type: cell-based, mouse; conditions: for ΔΨm (composite Z-score): normalized score vs mock-treated (DMSO) wells
[2] = system: reactive oxygen species; assay type: cell-based, mouse; conditions: for ROS (composite Z-score): normalized score vs mock-treated (DMSO) wells
[3] = system: OXPHOS gene expression; assay type: cell-based, mouse; conditions: for GE-HTS (composite Z-score): normalized score vs mock-treated (DMSO) wells
[4] = system: nuOXPHOS transcripts; assay type: cell-based, mouse; conditions: for nucOX (composite Z-score): normalized score vs mock-treated (DMSO) wells
[5] = system: mtOXPHOS transcripts; assay type: cell-based, mouse; conditions: for mitoOX (composite Z-score): normalized score vs mock-treated (DMSO) wells
[6] = system: cytochrome c; assay type: cell-based, mouse; conditions: for cyt c (composite Z-score): normalized score vs mock-treated (DMSO) wells
[7] = system: C2C12 myotubes; conditions: for Viability (composite Z-score): normalized score vs mock-treated (DMSO) wells
[8] = system: cellular dehydrogenase activity; conditions: for MTT (composite Z-score): normalized score vs mock-treated (DMSO) wells
[9] = normalized composite Z-score vs mock-treated (DMSO) wells, Conc 20 μM
[10] = composite Z-score vs mock-treated (DMSO) wells, concentration of each compound in μM
[11] = 20 μM, composite Z-score vs DMSO
[12] = composite Z-score vs DMSO, Conc 20 μM
[13] = composite Z-score vs mock-treated (DMSO) wells, Conc 20 μM
[14] = composite Z-score vs DMSO wells, Conc 20 μM
[15] = 14.44 μM, composite Z-score vs DMSO

CCCCC[C@H](CC(=O)O)C(=O)O [nonic acid]
ΔΨm [1, 9]: −0.931
ROS [2, 9]: 1.211
GE-HTS [3, 9]: −0.080
nucOX [4, 9]: −0.104
mitoOX [5, 9]: 0.061
cyt c [6, 9]: −0.133
Viability [7, 9]: −1.043
MTT [8, 9]: −1.857

CCOC(=O)[C@H](CCc1ccccc1)N[C@@H](C)C(=O)N1[C@H](C(=O)O)C[C@H]2CCCC[C@@H]21 [trandoapril]
ΔΨm [1, 10]: −0.210
ROS [2, 10]: 0.572
GE-HTS [3, 10]: −1.375
nucOX [4, 10]: −1.466
mitoOX [5, 10]: −0.884
cyt c [6, 10]: 0.687
Viability [7, 10]: 0.694
MTT [8, 10]: −0.684

CNC[C@H](O)c1cccc(O)c1 [phenylephrine]
ΔΨm [1]: −0.460
ROS [2]: 0.474
GE-HTS [3]: 0.254
nucOX [4]: 0.120
mitoOX [5]: 0.536
cyt c [6]: −0.187
Viability [7]: −0.349
MTT [8]: 1.105

COc1c(O)cc2c(-c3ccccc3)cc(=O)oc2c1OC [kuhlmannin]
ΔΨm (composite Z-score) ([1]; Conc 20 μM): 0.133
ROS (composite Z-score) ([2]; Conc 20 μM): 0.443
GE-HTS (composite Z-score) ([3]; Conc 20 μM): 0.624
nucOX (composite Z-score) ([4]; Conc 20 μM): 0.646
mitoOX (composite Z-score) ([5]; Conc 20 μM): 0.408
cyt c (composite Z-score) ([6]; Conc 20 μM): −0.170
Viability (composite Z-score) ([7]; Conc 20 μM): 0.333
MTT (composite Z-score) ([8]; Conc 20 μM): −0.487

CCN(CC)Cc1cc(Nc2ccnc3cc(Cl)ccc23)ccc1O [amodiaquine]
ΔΨm [1, 11]: −1.178
ROS [2, 11]: 0.877
GE-HTS [3, 11]: 0.398
nucOX [4, 11]: 0.317
mitoOX [5, 11]: 0.481
cyt c [6, 11]: −0.008
Viability [7, 11]: −0.547
MTT [8, 11]: −1.008

COC(=O)CC[C@@H](C)[C@H]1CC[C@H]2[C@@H]3[C@H](O)C[C@@H]4C[C@H](O)CC[C@]4(C)[C@H]3C[C@H](O)[C@]12C [cholic acid, methyl ester]
ΔΨm [1, 9]: 0.065
ROS [2, 9]: 0.295
GE-HTS [3, 9]: −0.751
nucOX [4, 9]: −0.852
mitoOX [5, 9]: −0.394
cyt c [6, 9]: 0.018
Viability [7, 9]: −0.383
MTT [8, 9]: −1.021

O=c1cc(-c2ccc(O)cc2)oc2cc(O[C@@H]3O[C@H](CO)[C@@H](O)[C@H](O)[C@H]3O[C@@H]3OC[C@](O)(CO)[C@H]3O)cc(O)c12 [apiin]
ΔΨm [1, 12]: 0.029
ROS [2, 12]: 0.322
GE-HTS [3, 12]: −0.032
nucOX [4, 12]: −0.150
mitoOX [5, 12]: 0.250
cyt c [6, 12]: −0.697
Viability [7, 12]: −0.631
MTT [8, 12]: −1.444

CC(=O)Oc1cc(-c2coc3cc(OC(C)=O)c(OC(C)=O)c(OC(C)=O)c3c2=O)cc(OC(C)=O)c1OC(C)=O [iriginol hexaaceatate]
ΔΨm [1, 13]: −0.204
ROS [2, 13]: 0.815
GE-HTS [3, 13]: 0.928
nucOX [4, 13]: 0.859
mitoOX [5, 13]: 0.938
cyt c [6, 13]: −0.315
Viability [7, 13]: −0.291
MTT [8, 13]: −0.565

CCOc1cc(CC(=O)c2ccc(O)c(O)c2O)ccc1O
ΔΨm (composite Z-score) ([1]; Conc 20 μM): −1.362
ROS (composite Z-score) ([2]; Conc 20 μM): 0.189
GE-HTS (composite Z-score) ([3]; Conc 20 μM): 1.215
nucOX (composite Z-score) ([4]; Conc 20 μM): 1.496
mitoOX (composite Z-score) ([5]; Conc 20 μM): 0.371
cyt c (composite Z-score) ([6]; Conc 20 μM): 0.255
Viability (composite Z-score) ([7]; Conc 20 μM): −1.198
MTT (composite Z-score) ([8]; Conc 20 μM): −1.279

COc1cc(C(C)=O)cc(OC)c1O [acetosyringone]
ΔΨm [1, 12]: −0.370
ROS [2, 12]: 0.269
GE-HTS [3, 12]: 0.029
nucOX [4, 12]: −0.040
mitoOX [5, 12]: 0.201
cyt c [6, 12]: 0.310
Viability [7, 12]: −0.432
MTT [8, 12]: −1.266

CCCCCC1C(=O)CCC1CC(=O)OC (centres unmarked) [dihydrojasmonic acid, methyl ester]
ΔΨm [1, 12]: −0.204
ROS [2, 12]: −0.386
GE-HTS [3, 12]: 0.948
nucOX [4, 12]: 0.831
mitoOX [5, 12]: 1.068
cyt c [6, 12]: −0.281
Viability [7, 12]: 0.971
MTT [8, 12]: −0.452

COc1ccc(-c2cc(=O)c3c(O)cc(O)c(-c4cc(-c5cc(=O)c6c(O)cc(O)cc6o5)ccc4OC)c3o2)cc1 [isoginkgetin]
ΔΨm [1, 9]: −4.387
ROS [2, 9]: 1.106
GE-HTS [3, 9]: −0.589
nucOX [4, 9]: −0.318
mitoOX [5, 9]: −1.087
cyt c [6, 9]: −0.400
Viability [7, 9]: 2.182
MTT [8, 9]: −1.024

CN(C)C(=S)SSC(=S)N(C)C [thiram]
ΔΨm [1, 11]: −4.011
ROS [2, 11]: −3.915
GE-HTS [3, 11]: −2.420
nucOX [4, 11]: −2.770
mitoOX [5, 11]: −1.220
cyt c [6, 11]: −4.853
Viability [7, 11]: −5.812
MTT [8, 11]: −6.222

N#CC(=Cc1cccc(O)c1)C(=O)O [alpha-cyano-3-hydroxycinnamic acid]
ΔΨm [1, 11]: −0.165
ROS [2, 11]: 0.452
GE-HTS [3, 11]: −0.747
nucOX [4, 11]: −0.903
mitoOX [5, 11]: −0.285
cyt c [6, 11]: 0.349
Viability [7, 11]: −0.861
MTT [8, 11]: −0.323

COc1ccc(-c2cc(=O)c3c(O)cc(O[C@H]4O[C@H](CO[C@@H]5O[C@@H](C)[C@H](O)[C@@H](O)[C@H]5O)[C@@H](O)[C@H](O)[C@H]4O)cc3o2)cc1 [buddleoflavonoloside]
ΔΨm (composite Z-score) ([1]; Conc 20 μM): 0.050
ROS (composite Z-score) ([2]; Conc 20 μM): 0.265
GE-HTS (composite Z-score) ([3]; Conc 20 μM): 0.073
nucOX (composite Z-score) ([4]; Conc 20 μM): 0.114
mitoOX (composite Z-score) ([5]; Conc 20 μM): 0.017
cyt c (composite Z-score) ([6]; Conc 20 μM): 0.736
Viability (composite Z-score) ([7]; Conc 20 μM): 0.169
MTT (composite Z-score) ([8]; Conc 20 μM): 0.006

CC(C)c1ccc2c(c1O)CC[C@H]1C3=C(CC[C@]21C)C(=O)OC3 [triptophenolide]
ΔΨm (composite Z-score) ([1]; Conc 20 μM): 1.886
ROS (composite Z-score) ([2]; Conc 20 μM): −1.072
GE-HTS (composite Z-score) ([3]; Conc 20 μM): −0.110
nucOX (composite Z-score) ([4]; Conc 20 μM): 0.038
mitoOX (composite Z-score) ([5]; Conc 20 μM): −0.350
cyt c (composite Z-score) ([6]; Conc 20 μM): −0.593
Viability (composite Z-score) ([7]; Conc 20 μM): −0.599
MTT (composite Z-score) ([8]; Conc 20 μM): −1.067

C[N+]1(C)CCCC(OC(=O)C(O)(c2ccccc2)c2ccccc2)C1 (centres unmarked) [mepenzolate]
ΔΨm [1, 14]: 1.198
ROS [2, 14]: 0.368
GE-HTS [3, 14]: −0.025
nucOX [4, 14]: 0.062
mitoOX [5, 14]: −0.129
cyt c [6]: 0.666
cyt c [6, 14]: 0.855
Viability [7, 14]: 0.333
MTT [8, 14]: −0.894

CC(C)=CCC1=C(O)C(=O)c2ccccc2C1=O [lapachol]
ΔΨm [1, 14]: 0.035
ROS [2, 14]: −0.544
GE-HTS [3, 14]: −1.316
nucOX [4, 14]: −1.308
mitoOX [5, 14]: −1.077
cyt c [6, 14]: 0.325
Viability [7, 14]: −0.409
MTT [8, 14]: −1.211

[H]/N=C(/N)NS(=O)(=O)c1ccc(N)cc1 [sulfaguanidine]
ΔΨm [1, 14]: 0.217
ROS [2, 14]: 0.902
GE-HTS [3, 14]: −0.571
nucOX [4, 14]: −0.522
mitoOX [5, 14]: −0.556
cyt c [6, 14]: 0.147
Viability [7, 14]: −0.691
MTT [8, 14]: −0.421

C[C@@H]1CC[C@@]2(OC1)O[C@H]1C[C@H]3[C@@H]4CC[C@H]5C[C@@H](O)CC[C@]5(C)C4=CC[C@]3(C)[C@H]1[C@@H]2C [hydroxy (3beta)isoallospirost-9 (11)-ene]
ΔΨm [1, 9]: −0.423
ROS [2, 9]: 0.244
GE-HTS [3, 9]: −0.457
nucOX [4, 9]: −0.619
mitoOX [5, 9]: −0.081
cyt c [6, 9]: −0.048
Viability [7, 9]: 0.035
MTT [8, 9]: −1.944

C[C@H]1C[C@@H]2[C@H]([C@@H](O)C[C@@]3(C)[C@H]2CC[C@]3(O)C(=O)CO)[C@@]2(C)C=CC(=O)C=C12 [methylprednisolone]
ΔΨm [1]: −0.375
ROS [2]: 0.133
GE-HTS [3]: −0.220
nucOX [4]: −0.138
mitoOX [5]: −0.270
cyt c [6]: −0.102
Viability [7]: −0.631
MTT [8]: −1.014

CC(=O)Oc1ccc(/C=C/c2cc(OC(C)=O)cc(OC(C)=O)c2)cc1 [triacetylresveratrol]
ΔΨm [1, 9]: −3.502
ROS [2, 9]: −1.361
GE-HTS [3, 9]: −1.841
nucOX [4, 9]: −1.858
mitoOX [5, 9]: −1.401
cyt c [6, 9]: 0.683
Viability [7, 9]: −0.198
MTT [8, 9]: −2.002

CC(=O)O[C@@H]1CC[C@@]2(C)C(C[C@@H](OC(C)=O)[C@@]3(C)C4=CC(=O)O[C@@H](c5ccoc5)[C@]4(C)CCC23)C1(C)C (stereo partly drawn) [3alpha-acetoxydihydrodeoxygedunin]
ΔΨm [1, 13]: 1.157
ROS [2, 13]: 2.371
GE-HTS [3, 13]: −0.987
nucOX [4, 13]: −1.123
mitoOX [5, 13]: −0.584
cyt c [6, 13]: 0.179
Viability [7, 13]: 0.781
MTT [8, 13]: −1.653

CC(C)c1c(O)ccc2c1CC[C@H]1[C@@](C)(CO)CCC[C@]21C [19-hydroxytotarol]
ΔΨm [1, 13]: 0.453
ROS [2, 13]: 1.558
GE-HTS [3, 13]: −0.041
nucOX [4, 13]: −0.128
mitoOX [5, 13]: 0.086
cyt c [6, 13]: 1.305
Viability [7, 13]: −0.207
MTT [8, 13]: 1.198

COC(=O)C[C@H]1C(C)(C)[C@@H](O)[C@@H]2CC3=C4CC(O)O[C@@H](c5ccoc5)[C@]4(C)CCC3[C@@]1(C)C2=O (stereo partly drawn) [3,16-dideoxymexicanolide-3beta-diol]
ΔΨm [1, 9]: 0.154
ROS [2, 9]: 0.587
GE-HTS [3, 9]: 0.150
nucOX [4, 9]: 0.282
mitoOX [5, 9]: −0.202
cyt c [6, 9]: −0.130
Viability [7, 9]: −0.384
MTT [8, 9]: −1.091

CC(C)(C)NCC(O)c1cc(Cl)c(N)c(Cl)c1 (centres unmarked) [clenbuterol]
ΔΨm [1, 15]: −1.139
ROS [2, 15]: 0.914
GE-HTS [3, 15]: 0.054
nucOX [4, 15]: 0.063
mitoOX [5, 15]: 0.011
cyt c [6, 15]: −0.261
Viability [7, 15]: 0.134
MTT [8, 15]: −1.330
